Source: PMC4774911, “Biochemical Screening of Five Protein Kinases from Plasmodium falciparum against 14,000 Cell-Active Compounds” (PLoS ONE, 2016)
Like-named read-outs stand apart in the source and are kept apart here.

Key:
[1] = test system: P. falciparum 3D7 cells; details: P. falciparum 3D7, cited from earlier work
[2] = test system: 3D7 PFLDH; parameters: method as in ChEMBL; details: ref ChEMBL; cited from earlier work
[3] = target: T1, Plasmodium falciparum calcium-dependent protein kinase 1 (CDPK1) (Plasmodium falciparum, UniProt P62344); test: CDPK1 Kinase-Glo ATP-consumption screen and dose-response; format: biochemical
T1 construct: 6-Histidine (N); made in house
T1 sequence (P62344 whole entry): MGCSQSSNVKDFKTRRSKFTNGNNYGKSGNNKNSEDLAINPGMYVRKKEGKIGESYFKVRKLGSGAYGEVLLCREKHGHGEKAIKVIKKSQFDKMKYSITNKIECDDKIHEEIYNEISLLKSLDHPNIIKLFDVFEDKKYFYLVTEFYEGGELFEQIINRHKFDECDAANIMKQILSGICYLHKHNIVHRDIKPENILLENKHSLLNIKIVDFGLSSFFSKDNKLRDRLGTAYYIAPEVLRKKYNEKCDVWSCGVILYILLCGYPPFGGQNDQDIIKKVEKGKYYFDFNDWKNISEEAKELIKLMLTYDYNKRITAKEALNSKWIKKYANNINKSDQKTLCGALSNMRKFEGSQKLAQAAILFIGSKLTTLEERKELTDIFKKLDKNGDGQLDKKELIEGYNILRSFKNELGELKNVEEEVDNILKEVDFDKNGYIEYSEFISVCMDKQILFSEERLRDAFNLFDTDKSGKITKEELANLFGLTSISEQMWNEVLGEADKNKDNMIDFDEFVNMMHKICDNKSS
Summary of the method: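 ATP consumption by recombinant P. falciparum CDPK4 or CDPK1 measured as residual ATP by Kinase-Glo luminescence, with 40 μM Syntide-2 substrate and 90 min incubation stopped with 5 mM EGTA. Single-point screen at 1 μM final, followed by dose-response; no-substrate wells as negative control.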

[4] = target: T2, Plasmodium falciparum calcium-dependent protein kinase 4 (CDPK4) (Plasmodium falciparum, UniProt Q8IBS5); test: CDPK4 Kinase-Glo ATP-consumption screen and dose-response; format: biochemical; details: hits below 1 uM
T2 construct: 6-Histidine (N); made in house
T2 sequence (Q8IBS5 1-528): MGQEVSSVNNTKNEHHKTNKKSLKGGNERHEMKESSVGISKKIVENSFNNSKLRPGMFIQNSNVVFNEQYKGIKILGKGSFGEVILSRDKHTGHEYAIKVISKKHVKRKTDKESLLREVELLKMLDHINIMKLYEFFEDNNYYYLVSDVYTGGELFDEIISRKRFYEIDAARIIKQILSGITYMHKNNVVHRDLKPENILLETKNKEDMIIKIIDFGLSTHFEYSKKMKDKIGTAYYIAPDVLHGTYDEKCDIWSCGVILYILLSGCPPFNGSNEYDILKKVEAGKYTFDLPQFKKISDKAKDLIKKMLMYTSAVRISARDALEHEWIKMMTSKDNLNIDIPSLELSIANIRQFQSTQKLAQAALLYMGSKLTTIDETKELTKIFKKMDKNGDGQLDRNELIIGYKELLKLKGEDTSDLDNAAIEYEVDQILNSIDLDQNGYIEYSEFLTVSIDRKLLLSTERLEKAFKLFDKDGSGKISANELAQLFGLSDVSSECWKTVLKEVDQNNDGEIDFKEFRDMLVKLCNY
Experimental: Biochemical assays were performed in white 384-well plates (Nunc). Liquid transfers were done manually with 8-channel pipets. Compounds were initially tested in a single-point screen (final concentration 1 μM). […] The catalytic activity of each kinase was considered proportional to ATP consumed, as determined from measurements of residual [ATP] with the luciferase-based reagent Kinase-Glo (Promega) following incubation. Luminescence (proportional to residual [ATP]) was measured on the plate readers FLx800 (BioTek Instruments, Winooski, VT, USA) and MicroBeta^2 (PerkinElmer, Waltham, MA, USA). Incubation times were chosen to ensure near-complete ATP depletion in the absence of inhibition, thus maximizing the difference in signal between inhibited and uninhibited wells.
40 μM Syntide-2 was used as a substrate; BKI-1 [14] was used as a control inhibitor, while reaction mixtures lacking Syntide-2 were included as an additional negative control. Incubation time was 90 minutes. Reactions were terminated by adding excess EGTA (5 mM), which sequesters Ca^2+ and halts calcium-dependent kinase activity.

[5] = test system: P. falciparum DD2; parameters: method as in ChEMBL; details: ref ChEMBL; cited from earlier work
[6] = test system: HepG2 cells; details: HepG2 cells, cited from earlier work
[7] = target: T3, PKG (Plasmodium falciparum, UniProt Q8I719); test: PKG IC50 (supplementary data file); format: biochemical
T3 sequence (Q8I719 whole entry): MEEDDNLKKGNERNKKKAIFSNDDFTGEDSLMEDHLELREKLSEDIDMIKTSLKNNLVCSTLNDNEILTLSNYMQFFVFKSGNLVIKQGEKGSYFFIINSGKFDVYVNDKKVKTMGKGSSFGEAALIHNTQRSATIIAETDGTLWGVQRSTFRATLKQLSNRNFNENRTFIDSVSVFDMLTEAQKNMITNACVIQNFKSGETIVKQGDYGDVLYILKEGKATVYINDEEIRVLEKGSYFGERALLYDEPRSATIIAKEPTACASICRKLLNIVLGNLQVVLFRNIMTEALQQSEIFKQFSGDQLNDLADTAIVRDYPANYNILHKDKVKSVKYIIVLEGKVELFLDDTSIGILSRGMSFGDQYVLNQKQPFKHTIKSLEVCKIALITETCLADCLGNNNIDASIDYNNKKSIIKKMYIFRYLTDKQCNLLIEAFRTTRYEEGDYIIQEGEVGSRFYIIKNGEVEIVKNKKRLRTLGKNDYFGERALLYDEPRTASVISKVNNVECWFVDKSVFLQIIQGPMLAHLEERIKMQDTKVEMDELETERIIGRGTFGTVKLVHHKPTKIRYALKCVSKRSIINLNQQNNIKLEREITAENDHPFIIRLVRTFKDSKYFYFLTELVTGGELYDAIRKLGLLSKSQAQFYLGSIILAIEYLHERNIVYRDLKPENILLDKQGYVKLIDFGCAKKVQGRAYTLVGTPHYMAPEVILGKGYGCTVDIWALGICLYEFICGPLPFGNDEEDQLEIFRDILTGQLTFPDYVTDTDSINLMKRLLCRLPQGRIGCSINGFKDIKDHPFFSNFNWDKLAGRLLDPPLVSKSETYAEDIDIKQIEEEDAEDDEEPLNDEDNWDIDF
Text: (§1) Supplement pone.0149996.s003.xls, sheet "combined_1_sorted"

[8] = target: T4, Plasmodium falciparum protein kinase 6 (PK6) (Plasmodium falciparum, UniProt Q8IDW1); test: biochemical
T4 construct: 6-Histidine (N); made in house
T4 sequence (Q8IDW1 1-305): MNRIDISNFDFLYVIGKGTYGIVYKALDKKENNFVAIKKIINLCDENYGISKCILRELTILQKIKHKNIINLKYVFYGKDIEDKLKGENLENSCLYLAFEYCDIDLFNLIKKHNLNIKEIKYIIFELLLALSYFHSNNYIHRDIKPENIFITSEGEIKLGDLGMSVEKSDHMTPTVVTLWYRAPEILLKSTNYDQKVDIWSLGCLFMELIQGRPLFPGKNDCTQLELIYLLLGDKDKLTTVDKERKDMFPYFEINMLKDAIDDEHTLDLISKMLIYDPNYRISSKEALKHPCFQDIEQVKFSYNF

[9] = test system: DD2; parameters: method as in F.J. Gamo et al., Nature 2010; details: P. falciparum Dd2; downloaded from ChEMBL ref F.J. Gamo et al., Nature 2010; cited from earlier work
[10] = target: T3, PKG; test: PKG IC50 (supplementary data file of hits); format: biochemical
Text: as §1

[11] = test system: 3D7 PFLDH; parameters: method as in F.J. Gamo et al., Nature 2010; details: downloaded from ChEMBL ref F.J. Gamo et al., Nature 2010; cited from earlier work
[12] = hits below 1 uM, read-out: CDPK1 IC50
[13] = downloaded from ChEMBL ref F.J. Gamo et al., Nature 2010
[14] = hits below 1 uM, read-out: PK6 IC50

| SMILES | PCT_IHB_3D7 ([1]; ref ChEMBL) | pXC50_3D7 ([1]; ref ChEMBL) | PCT_INHIB_3D7_PFLDH [2] | IC50 [3, 12] | IC50 [4] | PCT_INHB_DD2 [5] | PCT_INHIB_HEPG2 ([6]; ref ChEMBL) | IC50 [7] | IC50 [3] | IC50 [8] | PCT_INHB_DD2 [9] | PCT_IHB_3D7 [1, 13] | pXC50_3D7 [1, 13] | IC50 [10] | PCT_INHIB_3D7_PFLDH [11] | PCT_INHIB_HEPG2 [6, 13] | IC50 [8, 14] |
| --- | --- | --- | --- | --- | --- | --- | --- | --- | --- | --- | --- | --- | --- | --- | --- | --- | --- |
| Cc1csc(-c2ncc(OC[C@@H](N)Cc3ccccc3)cc2-c2ccc3[nH]nc(C)c3c2)c1.O=C(O)C(F)(F)F [TCMDC-136087] | 98 | 6.078 | 4 | 44 nM | 420 nM | 35 | 48 | > 10000 nM | – | – | – | – | – | – | – | – | – |
| Cc1n[nH]c2ccc(-c3cc(OC[C@@H](N)Cc4ccccc4)cnc3-c3cc4ccccc4s3)cc12.O=C(O)C(F)(F)F [TCMDC-136352] | 99 | 6.092 | 0 | – | 563 nM | 68 | 41 | > 10000 nM | – | – | – | – | – | – | – | – | – |
| CCN(CC)CCOc1ccc(Nc2ncc3cc(-c4c(Cl)cccc4Cl)c(=O)n(C)c3n2)cc1 [TCMDC-140940] | 90 | 5.929 | 1 | – | – | 91 | 72 | – | 780 nM | 350 nM | – | – | – | – | – | – | – |
| NS(=O)(=O)c1cccc(N/C=C2\C(=O)Nc3ccc(S(=O)(=O)Cc4c(Cl)cccc4Cl)cc32)c1 [TCMDC-135947] | 92 | 6.143 | 4 | – | 116 nM | 99 | 1 | > 10000 nM | – | – | – | – | – | – | – | – | – |
| Cn1cccc1C(=O)Nc1cccc(-c2nn3ccccc3c2-c2ccnc(Nc3ccc4c(c3)OCCO4)n2)c1 [TCMDC-135663] | – | – | – | – | 191 nM | – | – | – | – | – | 27 | 95 | 5.869 | > 10000 nM | 4 | 12 | – |
| COc1ccc(Nc2ncc3c(-c4cccc(NC(=O)Cc5ccc(O)cc5)c4)c[nH]c3n2)cc1OC [TCMDC-135248] | 100 | 6.244 | 0 | 98 nM | – | 99 | 48 | – | – | – | – | – | – | – | – | – | 445 nM |
| O=C(Nc1ccccc1)Nc1cccc(-c2nn3c(OCCN4CCCC4)cccc3c2-c2ccncc2)c1 [TCMDC-135539] | – | – | – | – | 775 nM | – | – | – | – | – | 98 | 100 | 6.394 | > 10000 nM | 4 | 30 | – |
| Cc1cc(Nc2nc(Nc3cccc(Cl)c3)nc3ccccc23)n[nH]1 [TCMDC-134695] | 100 | 6.542 | 0 | – | – | 95 | 9 | – | – | – | – | – | – | – | – | – | 151 nM |
| Cl.Nc1ncnc2occ(-c3ccc(NC(=O)Nc4cc(C(F)(F)F)ccc4F)cc3)c12 [TCMDC-141371] | 99 | 5.765 | 0 | 165 nM | – | 99 | 57 | – | – | – | – | – | – | – | – | – | 335 nM |
| Cc1ccc(Nc2nc3cc(Nc4ccnc(Nc5cccc(CS(C)(=O)=O)c5)n4)ccc3o2)cc1.O=C(O)C(F)(F)F [TCMDC-141957] | 100 | 6.0348 | 4 | – | – | 81 | 55 | – | – | – | – | – | – | – | – | – | 229 nM |
| N#Cc1ccc(C(=O)Nc2cc(-c3cccc(O)c3)cc3[nH]ncc23)cc1 [TCMDC-134118] | 90 | 5.863 | 0 | – | 478 nM | 79 | 15 | > 10000 nM | – | – | – | – | – | – | – | – | – |
| CN(c1ccc2c(c1)nc(NCc1ccccc1)n2C)c1ccnc(Nc2ccc(CS(C)(=O)=O)cc2)n1.Cl [TCMDC-138740] | 94 | 6.075 | 4 | – | – | 69 | 61 | – | – | – | – | – | – | – | – | – | 464 nM |
| CCN(CC)CCNC(=O)c1ccc(N/C=C2\C(=O)Nc3ccc(S(=O)(=O)Cc4c(Cl)cccc4Cl)cc32)cc1 [TCMDC-135945] | 100 | 6.0758 | 3 | – | 73 nM | 56 | 25 | > 10000 nM | – | – | – | – | – | – | – | – | – |
| CN1CCC(NC(=O)c2cccc(Nc3cc(Nc4cccc(Br)c4)ncn3)c2)CC1 [TCMDC-124773] | 94 | 5.997 | 1 | – | – | 6 | 25 | – | – | – | – | – | – | – | – | – | 602 nM |
| Cn1nc(-c2ccc(NC(=O)Nc3ccc4ccccc4c3)c(F)c2)c2cnc(NCCN3CCOCC3)nc21.O=C(O)C(F)(F)F [TCMDC-141561] | 93 | 5.992 | 1 | – | – | 3 | 62 | – | – | – | – | – | – | – | – | – | 860 nM |
| C#CCNC(=O)c1ccc(-c2ccnc(Nc3cccc(CCCN4CCOCC4)c3)n2)s1 [TCMDC-136764] | 82 | 5.998 | 0 | – | – | 45 | 54 | – | – | – | – | – | – | – | – | – | 181 nM |
| CCS(=O)(=O)c1ccc(OC)c(Nc2nccc(-c3c(-c4cccc(NC(=O)c5c(F)cccc5F)c4)nn4ncccc34)n2)c1 [TCMDC-135682] | – | – | – | – | 201 nM | – | – | – | – | – | 88 | 87 | 5.986 | > 10000 nM | 0 | 27 | – |
| Cc1ccc(S(=O)(=O)Nc2ccc(Nc3nccc(Nc4cccc5[nH]ncc45)n3)cc2)cc1 [TCMDC-136297] | 90 | 6.019 | 6 | – | – | 5 | 57 | – | – | – | – | – | – | – | – | – | 823 nM |
| Cc1ccc(Nc2ccnc(Nc3ccc4c(c3)CS(=O)(=O)C4)n2)cc1O.Cl [TCMDC-138484] | 100 | 6.14 | 5 | 416 nM | – | 76 | 82 | – | – | – | – | – | – | – | – | – | 122 nM |
| O=CO.O=S1(=O)NCc2ccc(Nc3nccc(Nc4ccc5c(cnn5Cc5ccccc5)c4)n3)cc21 [TCMDC-138840] | 94 | 6.125 | 0 | 110 nM | – | 33 | 0 | – | – | – | – | – | – | – | – | – | 265 nM |
| CC(C)(CN)c1nc(-c2ccc(Br)c(O)c2)c(-c2ccncc2)[nH]1.Cl [TCMDC-140680] | – | – | – | 19 nM | – | – | – | – | – | – | 97 | 96 | 6.015 | 242 nM | 0 | 31 | – |
